Results as given in patent EP0293814A1, “Mono- and polyhydroxyacyl derivatives of polyoxygenated labdanes, a process for their production and their use as drugs” (HOECHST AKTIENGESELLSCHAFT, priority 1987, dated 1988).

Assay: Lowering of intraocular pressure, Schiotz tonometry
Format: in vivo
Excerpt: Die Labdane der vorliegenden Anmeldung eignen sich zur Behandlung des erhöhten Augeninnendrucks, weil sie, wie mit der Schiotz-Tonometrie nachgewiesen, die Eigenschaft besitzen, den Augeninnendruck herabzusetzen (s. Capriol. J., Sears, M., Lancet, 1, (1983) 958 - 96).
Die Wirksamkeit einiger repräsentativer Verbindungen gemäß der Erfindung ist als prozentuale Senkung des Augeninnendrucks ausgedrückt und in Tab. 2 dargestellt.

Compound | Senkung des Augeninnendrucks (%) (Konzentration 0,1 %) | Senkung des Augeninnendrucks (%) (Konzentration 0,5 %) | Senkung des Augeninnendrucks (%) (Konzentration 0,25 %) | Senkung des Augeninnendrucks (%) (Konzentration 2 %) | Erniedrigung des Augeninnendrucks (in words, compared with the other substances of the invention (Tab. 2))
C=C[C@@]1(C)CC(=O)[C@]2(O)[C@@]3(C)[C@@H](O)CCC(C)(C)[C@@H]3[C@H](O)[C@H](OC(=O)[C@H](O)CO)[C@@]2(C)O1 [compound 7] | 17% | 25% | 24% | 27% | wesentlich besser erniedrigt als die anderen Substanzen der Erfindung
C=C[C@@]1(C)CC(=O)[C@]2(O)[C@@]3(C)[C@@H](OC(=O)COC=O)CCC(C)(C)[C@@H]3[C@H](O)[C@H](OC(=O)COC=O)[C@@]2(C)O1 [compound 5] | – | – | – | 26% | –
C=C[C@@]1(C)CC(=O)[C@]2(O)[C@@]3(C)[C@@H](O)CCC(C)(C)[C@@H]3[C@H](O)[C@H](OC(=O)COCC)[C@@]2(C)O1 [compound 1] | – | – | – | 31% | –
C=C[C@@]1(C)CC(=O)[C@]2(O)[C@@]3(C)[C@@H](O)CCC(C)(C)[C@@H]3[C@H](OC(=O)COCC)[C@H](O)[C@@]2(C)O1 [compound 2] | – | – | – | 20% | –
